Where two headings read alike, the source gives them in different places.

One may read the inhibition as how much of the control response was suppressed. Usually CC50 stands for the concentration at which the toxic effect on the cells reaches its halfway point. Low readings indicate harm at low concentration, high ones better tolerance by the cells.

The subject of one series is HIV-IIIb. Nature of the series: Test A: Antiviral Assay in MT4 Cells. Format: cell-based, HIV-1. The following applies: read-out: % inhibition at 6 μM. The method, then: Test A: Antiviral Assay in MT4 Cells
(§1) For the antiviral assay, 40 μL of 1× test concentration of 3-fold serially diluted compound in culture medium with 10% FBS was added to each well of a 384-well plate (10 concentrations) in quadruplicate. MT-4 cells were next mixed with HIV-IIIb at an m.o.i of 0.003 for 1 hour, after which time 35 μL of virus/cell mixture (2000 cells) was immediately added to each well containing 40 μL of diluted compound. The plates were then incubated at 37° C. for 5 days. After 5 days of incubation, 25 μl of 2× concentrated CellTiter-Glo™ Reagent (catalog #G7571, Promega Biosciences, Inc., Madison, Wis.) was added to each well containing MT-4 cells. Cell lysis was carried out by incubating at room temperature for 10 min and then chemiluminescence was read.

A short description of series [1]: Test B: Cytotoxicity assay. Format: cell-based. The following applies: human, uninfected MT-4 cells, same protocol as Test A, CellTiter-Glo. How it is done:
as §1
Test B:Cytotoxicity assay
Compound cytotoxicity and the corresponding CC50 values was determined using the same protocol as described in the antiviral assay (Test A) except that uninfected cells were used.
(Cellular ATP, detected with luciferase, serves as a proxy for viable cell number.)

Where [2] appears, read: Human immunodeficiency virus 1, IIIB, MT4, 120 h.
Where [3] appears, read: Human immunodeficiency virus 1, MT4, 120 h, percent inhibition of virus-induced cell killing at 6 μM drug concentration, from the dose response curve, MT-4 cells infected with HIV-IIIb, 5 days.

Consider `Cc1cc2ncn(CC(=O)NC(Cc3cc(F)cc(F)c3)c3cnc(-c4ccc(Cl)cc4)o3)c2cc1C` (stereo not drawn) [Compound 23, N-(1-(2-(4-chlorophenyl)oxazol-5-yl)-2-(3,5-difluorophenyl)ethyl)-2-(5,6-dimethyl-1H-benzo[d]imidazol-1-yl)acetamide], for which the inhibition at 6 µM in the series on HIV-IIIb (setting [2]) was 0%. In series [1], this compound registered a CC50 at 5 days of 12 µM.

For the compound `O=C(Cc1c[nH]c2ccc(O)cc12)NC(Cc1cc(F)cc(F)c1)c1cnc(-c2ccc(Cl)cc2)o1` (stereo not drawn) [Compound 24, N-(1-(2-(4-chlorophenyl)oxazol-5-yl)-2-(3,5-difluorophenyl)ethyl)-2-(5-hydroxy-1H-indol-3-yl)acetamide], the inhibition at 6 µM with HIV-IIIb (setting [3]) came to 5%. In addition, the CC50 at 5 days in series [1] amounted to 13.6 µM.

Turning to `O=C(Cc1c[nH]c2ccc(F)cc12)N[C@@H](Cc1cc(F)cc(F)c1)c1nocc1-c1ccc(Cl)cc1` [Compound 25I, (S)—N-(1-(4-(4-chlorophenyl)isoxazol-3-yl)-2-(3,5-difluorophenyl)ethyl)-2-(5-fluoro-1H-indol-3-yl)acetamide], the inhibition at 6 µM with HIV-IIIb (setting [3]) is 68%. In addition, in series [1], the CC50 at 5 days turned out to be 9.89 µM.

Consider `O=C(Cn1nc(C(F)(F)F)c2c1CCCC2)N[C@@H](Cc1cc(F)cc(F)c1)c1nocc1-c1ccc(Cl)cc1` [Compound 27, (S)—N-(1-(4-(4-chlorophenyl)isoxazol-3-yl)-2-(3,5-difluorophenyl)ethyl)-2-(3-(trifluoromethyl)-4,5,6,7-tetrahydro-1H-indazol-1-yl)acetamide], for which the inhibition at 6 µM with HIV-IIIb (setting [3]) is 28%. Further, the CC50 at 5 days in series [1] was found to be 6.17 µM.

On to `Cn1cnc(C(Cc2cc(F)cc(F)c2)NC(=O)Cc2c[nH]c3ccc(F)cc23)c1-c1ccc(Cl)cc1` (stereo not drawn) [Compound 29G, N-(1-(5-(4-chlorophenyl)-1-methyl-1H-imidazol-4-yl)-2-(3,5-difluorophenyl)ethyl)-2-(5-fluoro-1H-indol-3-yl)acetamide], for which the inhibition at 6 µM with HIV-IIIb (setting [2]) was found to be 44%. The compound further returned a CC50 at 5 days in series [1] of 10.8 µM.

With `Cn1cnc(C(Cc2cc(F)cc(F)c2)NC(=O)Cn2nc(C(F)(F)F)c3c2CCCC3)c1-c1ccc(Cl)cc1` (stereo not drawn) [Compound 30, N-(1-(5-(4-chlorophenyl)-1-methyl-1H-imidazol-4-yl)-2-(3,5-difluorophenyl)ethyl)-2-(3-(trifluoromethyl)-4,5,6,7-tetrahydro-1H-indazol-1-yl)acetamide], in the series with HIV-IIIb (setting [3]), the inhibition at 6 µM is 69%. This compound returned a CC50 at 5 days in series [1] of 11 µM.

As for `Cn1cnc(C(Cc2cc(F)cc(F)c2)NC(=O)Cc2c[nH]c3ccc(C(F)(F)F)cc23)c1-c1ccc(Cl)cc1` (stereo not drawn) [Compound 32, N-(1-(5-(4-chlorophenyl)-1-methyl-1H-imidazol-4-yl)-2-(3,5-difluorophenyl)ethyl)-2-(5-(trifluoromethyl)-1H-indol-3-yl)acetamide], the inhibition at 6 µM in the series on HIV-IIIb (setting [3]) came out at 0%. Also, it took 11.9 µM to reach half-maximal cytotoxicity in series [1] (CC50 at 5 days).

Consider `O=C(Cc1c[nH]c2ccc(O)cc12)NC(Cc1cc(F)cc(F)c1)c1ncoc1-c1ccc(Cl)cc1` (stereo not drawn) [Compound 34, N-(1-(5-(4-chlorophenyl)oxazol-4-yl)-2-(3,5-difluorophenyl)ethyl)-2-(5-hydroxy-1H-indol-3-yl)acetamide], for which, in the series on HIV-IIIb (setting [3]), the inhibition at 6 µM stood at 0%. The CC50 at 5 days in series [1] was determined as 22.1 µM.

`COc1ccc2[nH]cc(CC(=O)NC(Cc3cc(F)cc(F)c3)c3ncoc3-c3ccc(Cl)cc3)c2n1` (stereo not drawn) [Compound 35, N-(1-(5-(4-chlorophenyl)oxazol-4-yl)-2-(3,5-difluorophenyl)ethyl)-2-(5-methoxy-1H-pyrrolo[3,2-b]pyridin-3-yl)acetamide]: in the series with HIV-IIIb (setting [3]), the inhibition at 6 µM came to 0%. This compound displayed a CC50 at 5 days in series [1] of 15.3 µM.

Consider `O=C(Cn1nc(C(F)(F)F)c2c1CCCC2)NC(Cc1cc(F)cc(F)c1)c1ncoc1-c1ccc(Cl)cc1` (stereo not drawn) [Compound 36, N-(1-(5-(4-chlorophenyl)oxazol-4-yl)-2-(3,5-difluorophenyl)ethyl)-2-(3-(trifluoromethyl)-4,5,6,7-tetrahydro-1H-indazol-1-yl)acetamide], for which, in the series with HIV-IIIb (setting [2]), the inhibition at 6 µM was 0%. Besides, the CC50 at 5 days in series [1] is 16.3 µM.

Consider `O=C(Cc1c[nH]c2ccc(F)cc12)NC(Cc1cc(F)cc(F)c1)c1ncoc1-c1ccc(Cl)cc1` (stereo not drawn) [Compound 37, N-(1-(5-(4-chlorophenyl)oxazol-4-yl)-2-(3,5-difluorophenyl)ethyl)-2-(5-fluoro-1H-indol-3-yl)acetamide], for which, in the series on HIV-IIIb (setting [3]), the inhibition at 6 µM worked out at 0%. In series [1], it took 10.2 µM to reach half-maximal cytotoxicity (CC50 at 5 days).

As for `O=C(Cc1c[nH]c2ccc(O)nc12)NC(Cc1cc(F)cc(F)c1)c1ncoc1-c1ccc(Cl)cc1` (stereo not drawn) [Compound 38, N-(1-(5-(4-chlorophenyl)oxazol-4-yl)-2-(3,5-difluorophenyl)ethyl)-2-(5-hydroxy-1H-pyrrolo[3,2-b]pyridin-3-yl)acetamide], the inhibition at 6 µM in the series with HIV-IIIb (setting [3]) is 0%. Also, the midpoint of cytotoxicity in series [1], the CC50 at 5 days, lay at 19.1 µM.
